What all share (assay type): biochemical
One assay has as its target T1, L286M luciferase (Photinus pyralis, UniProt P08659, L286M).
T1 construct: The full firefly (Photinus pyralis) luciferase gene was PCR amplified from pGL3 (Promega); GST (N, cleaved yes); made in house; host or cells: E. coli JM109
The experiment in a line: Bioluminescence emission scan. As for the experimental part:
(§1) Purified mutant luciferases were used in bioluminescence emission and burst kinetics scans.
(§2) Luciferase was rapidly injected into a cuvette containing substrate, and the emission from 400-800 nm was recorded in a SPEX FluoroMax-3 fluorimeter with closed excitation slits.

The next assay has as its target T2, R218K luciferase (Photinus pyralis, UniProt P08659, R218K).
T2 construct: The full firefly (Photinus pyralis) luciferase gene was PCR amplified from pGL3 (Promega); GST (N, cleaved yes); made in house; host or cells: E. coli JM109
The experiment in a line: Bioluminescence emission scan. As for the experimental part:
as §1, §2

A further assay has as its target T3, L286M + S347A luciferase (Photinus pyralis, UniProt P08659, L286M/S347A).
T3 construct: The full firefly (Photinus pyralis) luciferase gene was PCR amplified from pGL3 (Promega); GST (N, cleaved yes); made in house; host or cells: E. coli JM109
The experiment in a line: Bioluminescence emission scan. As for the experimental part: as §1, §2

A further assay deals with T4, F247V luciferase (Photinus pyralis, UniProt P08659, F247V).
T4 construct: The full firefly (Photinus pyralis) luciferase gene was PCR amplified from pGL3 (Promega); GST (N, cleaved yes); made in house; host or cells: E. coli JM109
The experiment in a line: Bioluminescence emission scan. As for the experimental part: as §1, §2

Another assay addresses T5, L342A luciferase (Photinus pyralis, UniProt P08659, L342A).
T5 construct: The full firefly (Photinus pyralis) luciferase gene was PCR amplified from pGL3 (Promega); GST (N, cleaved yes); made in house; host or cells: E. coli JM109
The experiment in a line: Bioluminescence emission scan. As for the experimental part: as §1, §2

The target in assay [1] is T6, WT luciferase (Photinus pyralis, UniProt P08659).
T6 construct: The full firefly (Photinus pyralis) luciferase gene was PCR amplified from pGL3 (Promega); GST (N, cleaved yes); made in house; host or cells: E. coli JM109
The note with it: for Wavelength at Max. Emission: Table 2. As for the experimental part:
(§3) Purified mutant luciferases were used in bioluminescence emission and burst kinetics scans. Each purified protein in 20 mM Tris pH 7.6, 0.1 mM EDTA, 1 mM TCEP and 0.4 mg/mL BSA was added to 2× substrate in 20 mM Tris pH 7.6, 0.1 mM EDTA, 8 mM MgSO4, 4 mM ATP, and 1 mM TCEP in a cuvette.
as §2

The target in another assay is T7, R218K + L342A luciferase (Photinus pyralis, UniProt P08659, L342A/R218K).
T7 construct: The full firefly (Photinus pyralis) luciferase gene was PCR amplified from pGL3 (Promega); GST (N, cleaved yes); made in house; host or cells: E. coli JM109
As for the experimental part: as §3, §2

The target in the next assay is T8, L286Y luciferase (Photinus pyralis, UniProt P08659, L286Y).
T8 construct: The full firefly (Photinus pyralis) luciferase gene was PCR amplified from pGL3 (Promega); GST (N, cleaved yes); made in house; host or cells: E. coli JM109
The experiment in a line: Bioluminescence emission scan. As for the experimental part:
as §1, §2

A further assay concerns the target T9, F247R luciferase (Photinus pyralis, UniProt P08659, F247R).
T9 construct: The full firefly (Photinus pyralis) luciferase gene was PCR amplified from pGL3 (Promega); GST (N, cleaved yes); made in house; host or cells: E. coli JM109
The experiment in a line: Bioluminescence emission scan. As for the experimental part: as §1, §2

Another assay has as its target T10, T251S luciferase (Photinus pyralis, UniProt P08659, T251S).
T10 construct: The full firefly (Photinus pyralis) luciferase gene was PCR amplified from pGL3 (Promega); GST (N, cleaved yes); made in house; host or cells: E. coli JM109
The experiment in a line: Bioluminescence emission scan. As for the experimental part: as §1, §2

A further assay addresses T11, F247S luciferase (Photinus pyralis, UniProt P08659, F247S).
T11 construct: The full firefly (Photinus pyralis) luciferase gene was PCR amplified from pGL3 (Promega); GST (N, cleaved yes); made in house; host or cells: E. coli JM109
The experiment in a line: Bioluminescence emission scan. As for the experimental part: as §1, §2

The target in a further assay is T12, T251N luciferase (Photinus pyralis, UniProt P08659, T251N).
T12 construct: The full firefly (Photinus pyralis) luciferase gene was PCR amplified from pGL3 (Promega); GST (N, cleaved yes); made in house; host or cells: E. coli JM109
The experiment in a line: Bioluminescence emission scan. As for the experimental part:
as §1, §2

The next assay has as its target T13, T251Q luciferase (Photinus pyralis, UniProt P08659, T251Q).
T13 construct: The full firefly (Photinus pyralis) luciferase gene was PCR amplified from pGL3 (Promega); GST (N, cleaved yes); made in house; host or cells: E. coli JM109
The experiment in a line: Bioluminescence emission scan. As for the experimental part:
as §1, §2

The target in the next assay is T14, S347A luciferase (Photinus pyralis, UniProt P08659, S347A).
T14 construct: The full firefly (Photinus pyralis) luciferase gene was PCR amplified from pGL3 (Promega); GST (N, cleaved yes); made in house; host or cells: E. coli JM109
The experiment in a line: Bioluminescence emission scan. As for the experimental part: as §1, §2

Another assay has as its target T15, S347T luciferase (Photinus pyralis, UniProt P08659, S347T).
T15 construct: The full firefly (Photinus pyralis) luciferase gene was PCR amplified from pGL3 (Promega); GST (N, cleaved yes); made in house; host or cells: E. coli JM109
The experiment in a line: Bioluminescence emission scan. As for the experimental part:
as §1, §2

Another assay addresses T16, F247A luciferase (Photinus pyralis, UniProt P08659, F247A).
T16 construct: The full firefly (Photinus pyralis) luciferase gene was PCR amplified from pGL3 (Promega); GST (N, cleaved yes); made in house; host or cells: E. coli JM109
The experiment in a line: Bioluminescence emission scan. As for the experimental part: as §1, §2

For another assay, the target named is T17, S347A mutant luciferase (Photinus pyralis, UniProt P08659, S347A).
T17 construct: The full firefly (Photinus pyralis) luciferase gene was PCR amplified from pGL3 (Promega); GST (N, cleaved yes); made in house; host or cells: E. coli JM109
As for the experimental part:
(§4) The PCR product was cloned into the BamH1 and NotI sites of pGEX6P-1 for bacterial expression. Mutant proteins were created using the Quickchange site-directed mutagenesis kit (Stratagene). Saturating mutagenesis was performed using the used the degenerate codon NNK at sites predicted to impact or alter substrate biding including F247, T251, L286, S347, R337, R218, Q338, Y340, A313, and I351 using the degenerate codon NNK.
(§5) Luminescence assays in 96-well plates were initiated by adding 30 μL 2× substrate in 20 mM Tris pH 7.6, 0.1 mM EDTA, 8 mM MgSO4, 4 mM ATP, and 1 mM TCEP to 30 μL of 20 nM purified luciferase in 20 mM Tris pH 7.6, 0.1 mM EDTA, 1 mM TCEP and 0.4 mg/mL BSA.

The target of the next assay is T18, R218K mutant luciferase (Photinus pyralis, UniProt P08659, R218K).
T18 construct: The full firefly (Photinus pyralis) luciferase gene was PCR amplified from pGL3 (Promega); GST (N, cleaved yes); made in house; host or cells: E. coli JM109
The note with it: R218K luciferase, purified protein. As for the experimental part:
as §4, §5

The next assay has as its target T19, L286M mutant luciferase (Photinus pyralis, UniProt P08659, L286M).
T19 construct: The full firefly (Photinus pyralis) luciferase gene was PCR amplified from pGL3 (Promega); GST (N, cleaved yes); made in house; host or cells: E. coli JM109
The experiment in a line: Titration assay with purified protein. As for the experimental part:
as §4, §5

For the next assay, the target named is T20, T251S mutant luciferase (Photinus pyralis, UniProt P08659, T251S).
T20 construct: The full firefly (Photinus pyralis) luciferase gene was PCR amplified from pGL3 (Promega); GST (N, cleaved yes); made in house; host or cells: E. coli JM109
The experiment in a line: Titration assay with purified protein. As for the experimental part: as §4, §5

Assay [2] addresses T6, WT luciferase. The experiment in a line: Titration assay with purified protein. As for the experimental part:
The PCR product was cloned into the BamH1 and NotI sites of pGEX6P-1 for bacterial expression. Mutant proteins were created using the Quickchange site-directed mutagenesis kit (Stratagene). Saturating mutagenesis was performed using the used the degenerate codon NNK at sites predicted to impact or alter substrate biding including F247, T251, L286, S347, R337, R218, Q338, Y340, A313, and I351 using the degenerate codon NNK. The point mutants S347A, L286A, A348G, E311A, I351A, A313G, R337A, H245A and L342A were made independently.
Luminescence assays in 96-well plates were initiated by adding 30 μL 2× substrate in 20 mM Tris pH 7.6, 0.1 mM EDTA, 8 mM MgSO4, 4 mM ATP, and 1 mM TCEP to 30 μL of 20 nM purified luciferase in 20 mM Tris pH 7.6, 0.1 mM EDTA, 1 mM TCEP and 0.4 mg/mL BSA. Titration assays were performed 3 minutes post-substrate addition in a Turner Veritas luminometer with final substrate concentrations ranging from 0.122-250 μM or 0.244-500 μM.

The mark [3] stands for this setting: read-out: Apparent Km, 3 minutes post-substrate addition.

T6 sequence (P08659 whole entry): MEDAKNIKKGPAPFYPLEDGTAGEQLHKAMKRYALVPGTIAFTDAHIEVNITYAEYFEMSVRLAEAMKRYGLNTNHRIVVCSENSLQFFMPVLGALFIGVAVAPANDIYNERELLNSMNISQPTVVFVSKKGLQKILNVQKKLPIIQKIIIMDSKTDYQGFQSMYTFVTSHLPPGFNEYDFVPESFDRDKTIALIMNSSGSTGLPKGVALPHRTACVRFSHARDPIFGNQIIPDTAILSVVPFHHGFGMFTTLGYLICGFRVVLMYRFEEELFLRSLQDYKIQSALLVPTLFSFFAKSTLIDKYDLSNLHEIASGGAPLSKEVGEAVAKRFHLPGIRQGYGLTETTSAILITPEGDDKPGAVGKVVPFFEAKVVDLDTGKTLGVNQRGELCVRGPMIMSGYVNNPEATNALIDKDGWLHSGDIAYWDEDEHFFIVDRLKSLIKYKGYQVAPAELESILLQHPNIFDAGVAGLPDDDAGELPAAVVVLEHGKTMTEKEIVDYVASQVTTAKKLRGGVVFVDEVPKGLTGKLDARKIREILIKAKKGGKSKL
T17 sequence (P08659 whole entry S347A): as the sequence (P08659 whole entry) above, with S347A counted along it
T20 sequence (P08659 whole entry T251S): as the sequence (P08659 whole entry) above, with T251S counted along it
T18 sequence (P08659 whole entry R218K): as the sequence (P08659 whole entry) above, with R218K counted along it
T1 sequence (P08659 whole entry L286M): as the sequence (P08659 whole entry) above, with L286M counted along it
T19 sequence (P08659 whole entry L286M): as the sequence (P08659 whole entry) above, with L286M counted along it
T4 sequence (P08659 whole entry F247V): as the sequence (P08659 whole entry) above, with F247V counted along it
T13 sequence (P08659 whole entry T251Q): as the sequence (P08659 whole entry) above, with T251Q counted along it
T14 sequence (P08659 whole entry S347A): as the sequence (P08659 whole entry) above, with S347A counted along it
T10 sequence (P08659 whole entry T251S): as the sequence (P08659 whole entry) above, with T251S counted along it
T8 sequence (P08659 whole entry L286Y): as the sequence (P08659 whole entry) above, with L286Y counted along it
T5 sequence (P08659 whole entry L342A): as the sequence (P08659 whole entry) above, with L342A counted along it
T2 sequence (P08659 whole entry R218K): as the sequence (P08659 whole entry) above, with R218K counted along it
T11 sequence (P08659 whole entry F247S): as the sequence (P08659 whole entry) above, with F247S counted along it
T9 sequence (P08659 whole entry F247R): as the sequence (P08659 whole entry) above, with F247R counted along it
T15 sequence (P08659 whole entry S347T): as the sequence (P08659 whole entry) above, with S347T counted along it
T12 sequence (P08659 whole entry T251N): as the sequence (P08659 whole entry) above, with T251N counted along it
T3 sequence (P08659 whole entry L286M/S347A): as the sequence (P08659 whole entry) above, with L286M, S347A counted along it
T16 sequence (P08659 whole entry F247A): as the sequence (P08659 whole entry) above, with F247A counted along it
T7 sequence (P08659 whole entry R218K/L342A): as the sequence (P08659 whole entry) above, with R218K, L342A counted along it

On to `O=C(O)C1CSC(c2nc3cc4c(cc3s2)NCCO4)=N1` (centres unmarked) [CycLuc3, 2-(7,8-Dihydro-6H-5-oxa-1-thia-3,8-diaza-cyclopenta[b]naphthalen-2-yl)-4,5-dihydro-thiazole-4-carboxylic acid], for which the “Wavelength at Max. Emission” value came to 592 nm on L286M luciferase, 599 nm at F247V luciferase and 594 nm at WT luciferase [1]. Also, the “Maximum Emission Wavelength of Selected Substrate” value on R218K luciferase turned out to be 605 nm; at L286M + S347A luciferase it was 590 nm; at L342A luciferase, 599 nm; at WT luciferase [1] (Table 3), 599 nm; on R218K + L342A luciferase, 606 nm.
`O=C(O)[C@H]1CSC(c2nc3ccc(O)cc3s2)=N1` [D-Luciferin, D-luciferin]: the “Wavelength at Max. Emission” value is listed as 606 nm on L286Y luciferase; 605 nm on F247R luciferase; 553 nm at T251S luciferase; 564 nm at L286M luciferase; 588 nm at F247S luciferase; 555 nm on T251N luciferase. Also, the “Wavelength at Max. Emission” value at T251Q luciferase is 626 nm; at F247V luciferase, 600 nm; at S347A luciferase, 573 nm; at S347T luciferase, 561 nm; on F247A luciferase, 591 nm; at WT luciferase [1], 554 nm. Also, the “Apparent Vmax” value at S347A mutant luciferase (purified protein) is 142.8 ± 3 ×10^−5 cps; at R218K mutant luciferase, 1541 ± 21 ×10^−5 cps; on L286M mutant luciferase, 1060 ± 26 ×10^−5 cps; on T251S mutant luciferase, 1054 ± 19 ×10^−5 cps; on WT luciferase [2] it was 1079 ± 13 ×10^−5 cps. The Km (commonly the concentration of substrate that gives half-maximal velocity) on S347A mutant luciferase (read-out: Apparent Km, purified protein, 3 minutes post-substrate addition) came to 76.6 ± 3.1 µM; on R218K mutant luciferase (setting [3]), 106 ± 2.6 µM; on L286M mutant luciferase (setting [3]), 19.1 ± 1.3 µM; on T251S mutant luciferase (setting [3]), 114 ± 3.4 µM.
